The source of these data is US9393221B2, “Methods and compounds for reducing intracellular lipid storage” (THE GENERAL HOSPITAL CORPORATION, priority 2011, dated 2016).

Where a name gives a salt, the structure may show the parent alone.

The test system of one experiment is ATGL-KO iPSCs. Put plainly: High throughput iPSC chemical screening, Oil Red O (ORO) lipid accumulation. As to Z-score: test concentration or dose not given here. The conditions noted are these: glycolytic switch compounds. It counts as cell-based, mouse.
`O=C1NCN(c2ccccc2)C12CCN(CCCC(c1ccc(F)cc1)c1ccc(F)cc1)CC2` [Fluspirilen, reference compound]: the “Rank in normalized ORO score from screen” value was 40.
Still for that read-out and setting: in the case of `Fc1ccc(C(OCCN2CCN(CCCc3ccccc3)CC2)c2ccc(F)cc2)cc1` [GBR 12909 dihydrochloride] it was 208; in that of `Cc1cc2c(C(C)C)c(O)c(O)c(C=O)c2c(O)c1-c1c(C)cc2c(C(C)C)c(O)c(O)c(C=O)c2c1O` [Gossypol], 8.

The experiment is the same for the next values; noted with them: normalized ORO level vs DMSO-treated cells; compound present during 7 days differentiation, 96-well; negative = decrease in lipid accumulation.
`Cc1onc(-c2c(F)cccc2Cl)c1C(=O)N[C@@H]1C(=O)N2[C@@H]1SC(C)(C)[C@@H]2C(=O)O` [Flucloxacillin sodium] gave a Z-score of 0.5241.
Still for that read-out and setting: to `Nc1[nH]c(=O)ncc1F` [Flucytosine] belongs −0.8908; to `CC(=O)OCC(=O)[C@@]1(O)CC[C@H]2[C@@H]3CCC4=CC(=O)CC[C@]4(C)[C@@]3(F)[C@@H](O)C[C@@]21C` [Fludrocortisone acetate], −0.9911.
Still for that read-out and setting: in the case of `O=C(O)c1ccccc1Nc1cccc(C(F)(F)F)c1` [Flufenamic acid] it was −0.8139; in that of `CC1CCc2cc(F)cc3c(=O)c(C(=O)O)cn1c23` (stereo not shown) [Flumequine], −0.8648.
With `Fc1ccc(C(c2ccc(F)cc2)N2CCN(C/C=C/c3ccccc3)CC2)cc1` [Flunarizine dihydrochloride], the Z-score was 0.2207.
Same read-out and setting: in the case of `CC1(C)O[C@@H]2C[C@H]3[C@@H]4C[C@H](F)C5=CC(=O)C=C[C@]5(C)[C@H]4[C@@H](O)C[C@]3(C)[C@]2(C(=O)CO)O1` [Flunisolide] it was 0.2241; in that of `Cc1c(Nc2ncccc2C(=O)O)cccc1C(F)(F)F` [Flunixin meglumine], −1.0122; in that of `CC(=O)OCC(=O)[C@@]12OC(C)(C)O[C@@H]1C[C@H]1[C@@H]3C[C@H](F)C4=CC(=O)C=C[C@]4(C)[C@@]3(F)[C@@H](O)C[C@@]12C` [Fluocinonide], 0.3846.
Still for that read-out and setting: in the case of `C/C=C1/C[N@+]2(C)CC[C@]34C(=C(C=O)[C@H]1C[C@@H]32)Nc1ccccc14.[Cl-]` [Fluorocurarine chloride] it was −1.1648; in that of `CC(=O)[C@@]1(O)CC[C@H]2[C@@H]3C[C@H](C)C4=CC(=O)C=C[C@]4(C)[C@@]3(F)[C@@H](O)C[C@@]21C` [Fluorometholone], 0.1317; in that of `CNCCC(Oc1ccc(C(F)(F)F)cc1)c1ccccc1` (stereo not shown) [Fluoxetine hydrochloride], −1.0533.
The same measure, in the same setting: to `Cl.Cl.OCCN1CCN(CC/C=C2/c3ccccc3Sc3ccc(C(F)(F)F)cc32)CC1` [Flupentixol dihydrochloride cis-(Z)] belongs −0.5309; to `OCCN1CCN(CCCN2c3ccccc3Sc3ccc(C(F)(F)F)cc32)CC1` [Fluphenazine dihydrochloride], 0.4317.
As for `CC1(C)O[C@@H]2C[C@H]3[C@@H]4C[C@H](F)C5=CC(=O)CC[C@]5(C)[C@H]4[C@@H](O)C[C@]3(C)[C@]2(C(=O)CO)O1` [Flurandrenolide], the Z-score is −0.0402.
On the same count and under the same terms, in the case of `CC(C(=O)O)c1ccc(-c2ccccc2)c(F)c1` (stereo not shown) [Flurbiprofen] it was −1.4.
Same read-out and setting: in the case of `O=C1NCN(c2ccccc2)C12CCN(CCCC(c1ccc(F)cc1)c1ccc(F)cc1)CC2` [Fluspirilen, reference compound] it was −1.6301; in that of `CC(C)C(=O)Nc1ccc([N+](=O)[O-])c(C(F)(F)F)c1` [Flutamide], −0.5472.
Regarding `CCC(=O)O[C@]1(C(=O)SCF)[C@H](C)C[C@H]2[C@@H]3C[C@H](F)C4=CC(=O)C=C[C@]4(C)[C@@]3(F)[C@@H](O)C[C@@]21C` [Fluticasone propionate], the Z-score is −1.0154.
Turning to `CC(C)n1c(/C=C/C(O)CC(O)CC(=O)O)c(-c2ccc(F)cc2)c2ccccc21` (stereo not shown) [Fluvastatin sodium salt], the Z-score is 9.993.
Same read-out and setting: in the case of `COCCCC/C(=N\OCCN)c1ccc(C(F)(F)F)cc1` [Fluvoxamine maleate] it was −1.2293; in that of `Nc1nc2ncc(CNc3ccc(C(=O)N[C@@H](CCC(=O)O)C(=O)O)cc3)nc2c(=O)[nH]1` [Folic acid], 1.253.
Still for that read-out and setting: in the case of `Nc1nc(=O)c2c([nH]1)NCC(CNc1ccc(C(=O)N[C@@H](CCC(=O)[O-])C(=O)[O-])cc1)N2C=O.[Ca+2]` (stereo partly shown) [Folinic acid calcium salt] it was −0.7409; in that of `O=C(O)c1ccccc1OP(=O)(O)O` [Fosfosal], −1.2351; in that of `O=C1OC(CN2CCOCC2)CN1/N=C/c1ccc([N+](=O)[O-])o1` (stereo not shown) [Furaltadone hydrochloride], −0.4516.
On the same count and under the same terms, to `NS(=O)(=O)c1cc(C(=O)O)c(NCc2ccco2)cc1Cl` [Furosemide] belongs 0.5074; to `CCCCc1ccc(C(=O)O)nc1` [Fusaric acid], −0.977; to `CC(=O)O[C@H]1C[C@@]2(C)[C@@H](C[C@@H](O)[C@H]3[C@@]4(C)CC[C@@H](O)[C@@H](C)[C@@H]4CC[C@@]32C)/C1=C(\CCC=C(C)C)C(=O)O` [Fusidic acid sodium salt], 0.9973.
With `Fc1ccc(C(OCCN2CCN(CCCc3ccccc3)CC2)c2ccc(F)cc2)cc1` [GBR 12909 dihydrochloride], the Z-score was −1.0102.
Still for that read-out and setting: in the case of `NCC1(CC(=O)O)CCCCC1` [Gabapentin] it was −0.2478; in that of `COc1ccc(-c2ccc(=N)n(CCCC(=O)O)n2)cc1` [Gabazine], −0.1416; in that of `CCOC(=O)c1ccc(OC(=O)CCCCCN=C(N)N)cc1.CS(=O)(=O)O` [Gabexate mesilate], −1.4041.
On the same count and under the same terms, to `COc1ccc2c3c1O[C@H]1C[C@@H](O)C=C[C@@]31CCN(C)C2` [Galanthamine hydrobromide] belongs −0.7931; to `CC[N+](CC)(CC)CCOc1cccc(OCC[N+](CC)(CC)CC)c1OCC[N+](CC)(CC)CC` [Gallamine triethiodide], 0.8644.
Same read-out and setting: in the case of `Nc1nc(O)c2ncn(COC(CO)CO)c2n1` [Ganciclovir] it was −0.9945; in that of `C=C[C@]12CN(C)[C@@H]3[C@H]4CO[C@H](C[C@H]41)[C@]1(C(=O)Nc4ccccc41)[C@@H]32` [Gelsemine], −0.4693.
Turning to `Cc1ccc(C)c(OCCCC(C)(C)C(=O)O)c1` [Gemfibrozil], the Z-score is given as −0.2634.
`C=C1C[C@]23C[C@@]1(O)CC[C@H]2[C@@]12C=C[C@H](O)[C@@](C)(C(=O)O1)[C@H]2[C@@H]3C(=O)O` [Gibberellic acid] came in with a Z-score of 0.8089.
Still for that read-out and setting: in the case of `C[C@@H]1C(=O)O[C@H]2C[C@@]34[C@H]5C[C@@H](C(C)(C)C)[C@]36[C@@H](OC(=O)[C@@H]6O)O[C@@]4(C(=O)O5)[C@]21O` [Ginkgolide A] it was −0.1024; in that of `O=C(OCC(O)CO)c1ccccc1Nc1ccnc2cc(Cl)ccc12` (stereo not shown) [Glafenine hydrochloride], −0.4014.
Same read-out and setting: to `COc1ccc(Cl)cc1C(=O)NCCc1ccc(S(=O)(=O)NC(=O)NC2CCCCC2)cc1` [Glibenclamide] belongs 0.3112; to `Cc1ccc(S(=O)(=O)NC(=O)NN2CC3CCCC3C2)cc1` (stereo not shown) [Gliclazide], 0.2404; to `CCC1=C(C)CN(C(=O)NCCc2ccc(S(=O)(=O)NC(=O)N[C@H]3CC[C@H](C)CC3)cc2)C1=O` [Glimepiride], 0.1043.
The same measure, in the same setting: in the case of `Cc1cnc(C(=O)NCCc2ccc(S(=O)(=O)NC(=O)NC3CCCCC3)cc2)cn1` [Glipizide] it was −0.2981; in that of `COc1ccc2c(c1)C(=O)N(CCc1ccc(S(=O)(=O)NC(=O)NC3CCCCC3)cc1)C(=O)C2(C)C` [Gliquidone], −0.9495.
Turning to `CCC1(c2ccc(N)cc2)CCC(=O)NC1=O` (stereo not shown) [Glutethimide, para-amino], the Z-score was 0.2858.
The same measure, in the same setting: to `C[C@H](CCC(=O)NCC(=O)O)[C@H]1CC[C@H]2[C@@H]3[C@H](O)C[C@@H]4C[C@H](O)CC[C@]4(C)[C@H]3C[C@H](O)[C@]12C` [Glycocholic acid] belongs −0.6342; to `C[N+]1(C)CCC(OC(=O)C(O)(c2ccccc2)C2CCCC2)C1` (stereo not shown) [Glycopyrrolate], −0.6161; to `Cc1cc2c(C(C)C)c(O)c(O)c(C=O)c2c(O)c1-c1c(C)cc2c(C(C)C)c(O)c(O)c(C=O)c2c1O` [Gossypol], −2.0704.
For `CN(C)Cc1c[nH]c2ccccc12` [Gramine], the Z-score was determined as 1.618.
The same measure, in the same setting: to `Cn1c(-c2ccc3c(c2)OCO3)cc(=O)c2ccccc21` [Graveoline] belongs −1.0242; to `COC1=CC(=O)C[C@@H](C)[C@]12Oc1c(Cl)c(OC)cc(OC)c1C2=O` [Griseofulvin], 0.2728.
`COc1ccccc1OCC(O)CO` (stereo not shown) [Guaifenesin]: the Z-score turned out to be 0.144.
For the compound `N=C(N)N/N=C/c1c(Cl)cccc1Cl` [Guanabenz acetate], the Z-score is listed as −0.3551.
The same measure, in the same setting: to `N=C(N)NC(=O)Cc1c(Cl)cccc1Cl` [Guanfacine hydrochloride] belongs −0.0783; to `CC1(C)O[C@@H]2C[C@H]3[C@@H]4CCC5=CC(=O)CC[C@]5(C)[C@@]4(F)[C@@H](O)C[C@]3(C)[C@]2(C(=O)CCl)O1` [Halcinonide], −0.7085.
Same read-out and setting: to `CCCCN(CCCC)CCC(O)c1cc2c(Cl)cc(Cl)cc2c2cc(C(F)(F)F)ccc12` (stereo not shown) [Halofantrine hydrochloride] belongs 1.459; to `O=C(CCCN1CCC(O)(c2ccc(Cl)cc2)CC1)c1ccc(F)cc1` [Haloperidol], −1.1776; to `COc1ccc2c3c([nH]c2c1)C(C)=NCC3.Cl.O.O` [Harmaline hydrochloride dihydrate], −0.5714.
The same measure, in the same setting: in the case of `CC1=NCCc2c1[nH]c1cc(O)ccc21.Cl.O.O` [Harmalol hydrochloride dihydrate] it was 0.3888; in that of `COc1ccc2c(c1)[nH]c1c(C)nccc12.Cl` [Harmine hydrochloride], 0.3085.
As for `Cc1[nH]ccc2c1[nH]c1cc(=O)ccc12` [Harmol hydrochloride monohydrate], the Z-score was −0.0757.
Take `C[C@]1(OC(=O)/C=C/c2ccccc2)C[C@@H](O)[C@]2(O)C=CO[C@@H](O[C@@H]3O[C@H](CO)[C@@H](O)[C@H](O)[C@H]3O)[C@@H]21` [Harpagoside]: the Z-score is −1.174.
Still for that read-out and setting: in the case of `C[C@@H]1CC[C@@]2(OC1)O[C@H]1C[C@H]3[C@@H]4CC[C@@]5(C)C[C@@H](O)CC[C@]5(C)[C@H]4CC(=O)[C@]3(C)[C@H]1[C@@H]2C` [Hecogenin] it was 0.9208.
